Data reported in patent US20250296953A1, “3,4-THIAZOLO-STEROIDS AND METHODS OF MAKING AND USING THE SAME” (Arkansas State University - Jonesboro, priority 2018, published 2025).

Legend:
HCT-15 (Colon Cancer) = assay: NCI 60 one dose screen; type: cell-based, human
[1] = system: 60 different human tumor cell lines; assay: NCI Development Therapeutics Program 60 cell line screen, one dose; type: cell-based
NCI-H522 (NSCLC) = assay: NCI 60 one dose screen; type: cell-based, human; conditions: Non-small Cell Lung Cancer
SF-539 = assay: NCI 60 one dose screen; type: cell-based, human
SF-295 = assay: NCI 60 one dose screen; type: cell-based, human
SK-MEL-28 = assay: Melanoma cytotoxicity assay (resazurin); type: cell-based; conditions: human, 24 h
Procedure: (§1) Cytotoxicity Assay: Melanoma cells (˜4000 cells in each well) were incubated in a 96 well plates at 37° C. in 5% CO2 for 24 hours. Compounds were added in triplicates and the plate was further incubated for 24 hours. DMSO and dacarbazine were added as technical and positive controls respectively. Next day resazurin was added and the plate was further incubated for 6 hours followed by reading the plate at 544 nm (excitation) and 590 nm (emission) using BMG Labtech Fluostar Optima plate reader. IC50 values were determined by using Graphpad Prism.
(§2) On day 1, the cell line trypsinized and centrifuged to form cell pellet. The pellet was diluted in media, then counted using Countess automated cell counter. Approximately 4000 cells (198 uL) per well plated in […]. A control well of 200 uL growth media was also prepared. Wells closest to plate perimeter were filled with 200 uL PBS to prevent inner well evaporation. The 96 well plates are incubated in 37° C. incubator at 5% CO2 for 24 hours.
(§3) On day 2, compounds were added (in triplicate) along with DMSO/Dacarbazine controls (2 uL) added to bring wells to volume of 200 μL. The 96 well plates are incubated in 37° C. incubator at 5% CO2 for 24 hours.
(§4) On day 3, 40 μL of 0.15 mg/ml reszurin solution added to wells. Samples were placed in a 37° C. incubator at 5% CO2 for 6 hours. Excitation and emission for fluorescence measured at 544 nm and 590 nm using BMG Labtech Fluostar Optima plate reader
(§5) Percent viability determined by taking average of each triplicate well fluorescence and subtracting GM well reading to remove the background signal. This difference is then divided by the average of the negative control (DMSO) wells to determine percent viability.
(§6) IC50s were determined by using cereal dilution of compound to determine viability. Viabilities and concentration of cells are analyzed in Graphpad Prism by creating sigmoidal curve graph, which will determine the IC50 concentration.
(§7) We analyzed the ability of the thiazole-androstane derivatives to inhibit growth in various melanoma cell lines. The growth inhibition against melanoma cell lines of various compound is shown below in Tables 19 and 20. Inhibition results are reported as the IC50 concentration in μM of the indicated compound or as the percent viability […] of the indicated compound. NA=not available.

SK-MEL-25 = assay: Melanoma cytotoxicity assay (resazurin); type: cell-based; conditions: for SK-MEL-25 (% viability): human, 24 h
Procedure: as §1, §2, §3, §4, §5, §6, §7

LOX IMVI = assay: Melanoma cytotoxicity assay (resazurin); type: cell-based; conditions: for LOX-IMVI (% viability): human, 24 h
Procedure: as §1, §2, §3, §4, §5, §6, §7

SK-MEL-5 = assay: Melanoma cytotoxicity assay (resazurin); type: cell-based; conditions: human, 24 h
Procedure: as §1, §2, §3, §4, §5, §6, §7

MALME-3M = assay: Melanoma cytotoxicity assay (resazurin); type: cell-based; conditions: human, 24 h
Procedure: as §2, §3, §4, §5, §6, §7

(1S,2R,13R,14S,18S)-7-(3-fluorophenyl)-2,18-dimethyl-8-thia-6-azapentacyclo[11.7.0.02,10.05,9.014,18]icosa-5(9),7,10-trien-17-one [II.12]
Growth Percent (HCT-15 (Colon Cancer)): −38.17%
Growth Percent ([1]; Breast Cancer, BT-549): 23.16%
Growth Percent ([1]; Breast Cancer, HS 578T): 27.43%
Growth Percent ([1]; Breast Cancer, MCF7): 10.76%
Growth Percent ([1]; Breast Cancer, MDA-MB-231/ATCC): 62.02%
Growth Percent ([1]; Breast Cancer, MDA-MB-468): 29.20%
Growth Percent ([1]; Breast Cancer, T-47D): 3.07%
Growth Percent ([1]; CNS Cancer, SF-268): 52.39%
Growth Percent ([1]; CNS Cancer, SNB-19): 60.01%
Growth Percent ([1]; CNS Cancer, SNB-75): 44.61%
Growth Percent ([1]; CNS Cancer, U251): 18.77%
Growth Percent ([1]; Colon Cancer, COLO 205): 44.55%
Growth Percent ([1]; Colon Cancer, HCC-2998): 79.47%
Growth Percent ([1]; Colon Cancer, HCT-116): 0.51%
Growth Percent ([1]; Colon Cancer, HT29): 5.21%
Growth Percent ([1]; Colon Cancer, KM12): 46.48%
Growth Percent ([1]; Colon Cancer, SW-620): 3.81%
Growth Percent ([1]; Leukemia, CCRF-CEM): 15.82%
Growth Percent ([1]; Leukemia, HL-60(TB)): 34.18%
Growth Percent ([1]; Leukemia, K-562): 7.01%
Growth Percent ([1]; Leukemia, MOLT-4): 5.82%
Growth Percent ([1]; Leukemia, RPMI-8226): −2.88%
Growth Percent ([1]; Leukemia, SR): 5.11%
Growth Percent ([1]; Melanoma, LOX IMVI): 1.34%
Growth Percent ([1]; Melanoma, M14): 57.14%
Growth Percent ([1]; Melanoma, MALME-3M): 37.62%
Growth Percent ([1]; Melanoma, MDA-MB-435): 49.24%
Growth Percent ([1]; Melanoma, SK-MEL-2): 32.06%
Growth Percent ([1]; Melanoma, SK-MEL-5): 61.51%
Growth Percent ([1]; Melanoma, SK-MEL-28): 48.00%
Growth Percent ([1]; Melanoma, UACC-62): 34.85%
Growth Percent ([1]; Melanoma, UACC-257): 77.45%
Growth Percent ([1]; Non-small Cell Lung Cancer, A549/ATCC): 55.01%
Growth Percent ([1]; Non-small Cell Lung Cancer, EKVX): 68.33%
Growth Percent ([1]; Non-small Cell Lung Cancer, HOP-62): 50.54%
Growth Percent ([1]; Non-small Cell Lung Cancer, HOP-92): 74.28%
Growth Percent ([1]; Non-small Cell Lung Cancer, NCI-H23): 62.70%
Growth Percent ([1]; Non-small Cell Lung Cancer, NCI-H226): 65.84%
Growth Percent ([1]; Non-small Cell Lung Cancer, NCI-H322M): 69.34%
Growth Percent ([1]; Non-small Cell Lung Cancer, NCI-H460): 53.88%
Growth Percent ([1]; Ovarian Cancer, IGROV1): 0.60%
Growth Percent ([1]; Ovarian Cancer, NCI/ADR-RES): 68.33%
Growth Percent ([1]; Ovarian Cancer, OVCAR-3): 7.89%
Growth Percent ([1]; Ovarian Cancer, OVCAR-4): 65.10%
Growth Percent ([1]; Ovarian Cancer, OVCAR-5): 87.24%
Growth Percent ([1]; Ovarian Cancer, OVCAR-8): 28.53%
Growth Percent ([1]; Ovarian Cancer, SK-OV-3): 17.92%
Growth Percent ([1]; Prostate Cancer, DU-145): 22.88%
Growth Percent ([1]; Prostate Cancer, PC-3): 35.02%
Growth Percent ([1]; Renal Cancer, 786-0): −10.07%
Growth Percent ([1]; Renal Cancer, ACHN): 11.90%
Growth Percent ([1]; Renal Cancer, CAKI-1): 36.88%
Growth Percent ([1]; Renal Cancer, RXF 393): −22.47%
Growth Percent ([1]; Renal Cancer, SN12C): 42.89%
Growth Percent ([1]; Renal Cancer, TK-10): 24.03%
Growth Percent ([1]; Renal Cancer, UO-31): 1.08%
Growth Percent (NCI-H522 (NSCLC)): −36.55%
mean growth percent (SF-539; SF-539 (CNS cancer panel), 10 μM): −33.43%
Growth Percent (SF-539; one dose, CNS Cancer, SF-539): −33.43%
mean growth percent (SF-295; SF-295 (CNS cancer panel), 10 μM): −18.91%
Growth Percent (SF-295; one dose, CNS Cancer, SF-295): −18.91%

C[C@]12CC[C@H]3[C@@H](CC=C4c5sc(Nc6ccc(C(=O)O)cc6)nc5CC[C@@]43C)[C@@H]1CC[C@@H]2O [IIIa.26, 4-[[(1S,2R,13R,14S,17S,18S)-17-hydroxy-2,18-dimethyl-8-thia-6-azapentacyclo[11.7.0.02,10.05,9.014,18]icosa-5(9),6,10-trien-7-yl]amino]benzoic acid]
SK-MEL-28 (% viability) (SK-MEL-28): 69.56%
SK-MEL-25 (% viability) (SK-MEL-25): 37.03%
LOX-IMVI (% viability) (LOX IMVI): 79%
SK-MEL-5 (% viability) (SK-MEL-5): 93.06%
MALME-3M (% viability) (MALME-3M): 113.38%

CCCCNc1nc2c(s1)C1=CC[C@H]3[C@@H]4CC[C@H](O)[C@@]4(C)CC[C@@H]3[C@@]1(C)CC2 [IIIa.4, (1S,2R,13R,14S,17S,18S)-7-(butylamino)-2,18-dimethyl-8-thia-6-azapentacyclo[11.7.0.02,10.05,9.014,18]icosa-5(9),6,10-trien-17-ol]
SK-MEL-28 (% viability) (SK-MEL-28): 1.69%
IC50 (SK-MEL-25; Homo sapiens, SK-MEL-25 melanoma cells (head prints SK-25), read-out: SK-25 IC50): 16 µM
SK-MEL-25 (% viability) (SK-MEL-25): 2.63%
IC50 (LOX IMVI; Homo sapiens, LOX IMVI melanoma cells): 7.67 µM
LOX-IMVI (% viability) (LOX IMVI): 2%
SK-MEL-5 (% viability) (SK-MEL-5): 2.1%
MALME-3M (% viability) (MALME-3M): 4.96%
